Laboratory results taken from patent US11779602B2, “Methods of use for CAR T cells” (ENDOCYTE, INC., priority 2018, dated 2023).

Experiments:
[1] = tested on: FR+ tumor cell targets (MDA-MB-231, THP1-FRβ, HOS-FRα); assay: CAR-T cell activation markers (CD69, CD137, PD1) in co-culture with EC17-preloaded targets; type: cell-based, human; conditions: E/T 1:1, 24 hours
Protocol: To study CAR-T cell activation in the presence of FR+ tumor cell targets (FIGS. 53A-D), co-culture experiments were initially carried out with MDA-MB-231, THP1-FRβ and HOS-FRα. […] After 24 hours of co-culture, the surface expression of T cell activation markers CD69, CD137 (4-1BB), and PD1 were analyzed by flow cytometry. For T cell exhaustion studies (FIGS. 54A-C), FR+ (KB, MDA-MB-231, HOS-FRα^fLuc, THP1-FRβ) and FR-negative (HOS-143b^fLuc, THP1-FG12) tumor cell lines were used as targets. Here, target cells were incubated on day 0 without or with 0.1 and 10 nM of EC17 for 30 min at 37° C. and the status of EC17 “pre-loading” was assessed by counterstaining cell-surface EC17 with an anti-FITC antibody (FIG. 61A). Three days later, the surface expression of PD1, LAG3, and TIM3 inhibitor receptors on co-cultured CAR-T cells were analyzed and higher frequencies of double- and triple-positive cells were considered approaching an exhausted phenotype.
To examine antigen-dependent CAR-T cell activation, MDA-MB-231, THP1-FRβ and HOS-FRα cells were preloaded with 100 nM EC17 over 30 min. […] After 24 hours of co-culture, we measured the surface expression of T cell activation markers CD69, CD137 (4-1BB) and PD1 (FIGS. 53A-D). […] Three days later, co-cultured CAR-T cells were measured for upregulation and co-expression of T cell activation/exhaustion markers PD1, LAGS and TIM3. […]

[2] = tested on: target cells expressing surface folate receptor (OV90, SKOV3, IGROV1, HOS-FRα, MDA-MB-231); assay: Two day co-culture target cell kill assay (Annexin V); type: cell-based, human; conditions: 100 nM EC17 30 min pre-treatment, E:T 1:1, two days
Protocol: On day −1, 100,000 target cells were plated in 2 ml of growth media per well of a 12-well tissue culture plate to allow target cells to adhere and recover. On day 0, wells which received EC17 bridge molecule were treated with EC17 at 100 nM for 30 min in the tissue culture incubator. Afterwards, all media was washed off and replaced with fresh growth media free of folate and EC17. During the EC17 incubation, T cells were harvested, counted and after EC17 treatment was completed, 100,000 E2 CAR T cells were directly added onto each well of target cells in a total of 3 ml of growth media at a ratio of 1:1 (E:T) and incubated for both 1 and 2 days under standard tissue culture humidified conditions of 37° C. at 5% CO2. One day co-culture conditions were used to assay E2 CAR T cell activation by target cells and two-day incubation was used to assay target cell death. […]
To confirm that E2 CAR T cell activation also translates to successful killing of the target cells we performed a two-day co-culture assay then looked at target cell (EGFR-CD3-) events via flow cytometry and determined the percentage of target cell staining with the apoptotic surface marker, Annexin V stain. […]

SMILES: NC1=NC2N=CC(CNc3ccc(C(=O)N[C@@H](CCC(=O)NCCNC(=S)Nc4ccc(-c5c6ccc(=O)cc-6oc6cc(O)ccc56)c(C(=O)O)c4)C(=O)O)cc3)=NC2C(=O)N1 (stereo partly drawn) [EC17, FA-(γ)-ethylenediamine-FITC]
- CAR-T cell activation (CD69, CD137, PD1) ([1]; MDA-MB-231 and HOS-FRα preloaded with 100 nM EC17 30 min): strong activators
- CAR-T cell activation (CD69, CD137, PD1) ([1]; THP1-FRβ preloaded with 100 nM EC17 30 min): did trigger CAR-T cell activation, but at lower levels
- requirement of EC17 binding for target cell kill [2]: required for cell kill
